Laboratory results taken from ChEMBL document CHEMBL3091435, “Protein-Ligand Interactions: Thermodynamic Effects Associated with Increasing the Length of an Alkyl Chain” (ACS Med Chem Lett, 2013).
Square brackets hold non-standard residues; d marks the D form. Peptide text beside a SMILES is read from it. pY = N[C@@H](Cc1ccc(OP(=O)(O)O)cc1)C(=O)O; Ahp(2) = CCCCC[C@H](N)C(=O)O; Nle = CCCC[C@H](N)C(=O)O; Nva = CCC[C@H](N)C(=O)O; Abu = CC[C@H](N)C(=O)O

Molecular target: Growth factor receptor-bound protein 2 (Homo sapiens) (UniProt P62993)
Assay: Binding affinity to Grb2 SH2 domain (53 to 163) (unknown origin) expressed in Escherichia coli SG13009 by ITC analysis

| Ka [×10⁵ /M] | Compound |
| --- | --- |
| 7.6 | CCC[C@H](NC(=O)[C@H](Cc1ccc(OP(=O)(O)O)cc1)NC(C)=O)C(=O)N[C@@H](CC(N)=O)C(N)=O (Ac-[pY]-[Nva]-Asn-NH2) |
| 8.4 | CCCC[C@H](NC(=O)[C@H](Cc1ccc(OP(=O)(O)O)cc1)NC(C)=O)C(=O)N[C@@H](CC(N)=O)C(N)=O (Ac-[pY]-[Nle]-Asn-NH2) |
| 7.8 | CCCCC[C@H](NC(=O)[C@H](Cc1ccc(OP(=O)(O)O)cc1)NC(C)=O)C(=O)N[C@@H](CC(N)=O)C(N)=O (Ac-[pY]-[Ahp(2)]-Asn-NH2) |

Second part, the molecule before the results:

| Compound | Ka [×10⁵ /M] |
| --- | --- |
| CC[C@H](NC(=O)[C@H](Cc1ccc(OP(=O)(O)O)cc1)NC(C)=O)C(=O)N[C@@H](CC(N)=O)C(N)=O (Ac-[pY]-[Abu]-Asn-NH2) | 8.6 |
| C/C=C\[C@H](NC(=O)[C@H](Cc1ccc(OP(=O)(O)O)cc1)NC(C)=O)C(=O)N[C@@H](CC(N)=O)C(N)=O | 6.1 |
| CC(=O)N[C@@H](Cc1ccc(OP(=O)(O)O)cc1)C(=O)N[C@@H](C)C(=O)N[C@@H](CC(N)=O)C(N)=O (Ac-[pY]-Ala-Asn-NH2) | 2.2 |
